We go through nine compounds from ChEMBL document CHEMBL1150528, “The heparin-like antiproliferative activity of sulfated tetrasaccharides is sensitive to structural variation” (Bioorg Med Chem Lett, 1995).

One assay concerns the target Coagulation factor X (Homo sapiens, UniProt P00742). The assay is described as follows: Anticoagulant activity when interacted with Coagulation factor X.
The species entered for another assay is Rattus norvegicus. In words: Relative inhibitory activity (ri) was measured in rat smooth muscle cells (SMC) at 100 ug/mL in comparison to that of Heparin. In kind it is functional.
In a further assay the target is Prothrombin (Homo sapiens, UniProt P00734). The assay is described as follows: Anticoagulant activity when interacted with Coagulation factor II.

pIC50: −log10 of the molar value.

Sequence of Coagulation factor X (P00742 41-179 limits assumed): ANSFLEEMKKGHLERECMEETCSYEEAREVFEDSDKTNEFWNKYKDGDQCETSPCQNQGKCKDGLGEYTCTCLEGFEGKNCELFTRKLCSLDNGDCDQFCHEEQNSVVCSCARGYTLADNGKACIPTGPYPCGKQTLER
Sequence of Coagulation factor X (P00742 235-488 limits assumed): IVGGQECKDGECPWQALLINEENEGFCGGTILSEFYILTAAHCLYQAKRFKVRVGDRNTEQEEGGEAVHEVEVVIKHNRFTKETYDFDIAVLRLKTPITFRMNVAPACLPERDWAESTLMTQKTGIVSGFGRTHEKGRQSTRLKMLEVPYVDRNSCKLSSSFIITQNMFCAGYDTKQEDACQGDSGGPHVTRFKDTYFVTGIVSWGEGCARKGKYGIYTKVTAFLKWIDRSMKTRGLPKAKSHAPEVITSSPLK

The term pIC50 denotes −log10 of the IC50, conventionally taken in molar units. As to `O=S(=O)([O-])OC[C@@H]1O[C@@H](O[C@H]2O[C@@H](COS(=O)(=O)[O-])[C@@H](O[C@@H]3O[C@@H](CO[C@H]4O[C@@H](COS(=O)(=O)[O-])[C@@H](OS(=O)(=O)[O-])[C@H](OS(=O)(=O)[O-])[C@@H]4OS(=O)(=O)[O-])[C@@H](OS(=O)(=O)[O-])[C@H](OS(=O)(=O)[O-])[C@@H]3OS(=O)(=O)[O-])[C@H](OS(=O)(=O)[O-])[C@@H]2OS(=O)(=O)[O-])[C@@H](OS(=O)(=O)[O-])[C@@H](OS(=O)(=O)[O-])[C@H]1OS(=O)(=O)[O-].[Na+].[Na+].[Na+].[Na+].[Na+].[Na+].[Na+].[Na+].[Na+].[Na+].[Na+].[Na+].[Na+].[Na+]`, the pIC50 against Coagulation factor X and at Prothrombin was less than 3.32 in each case. In addition, in the assay filed under Rattus norvegicus, the Relative inhibitory activity amounted to 0.9.

On to `O=S(=O)([O-])OC[C@@H]1O[C@H](O[C@H]2O[C@@H](COS(=O)(=O)[O-])[C@@H](O[C@@H]3O[C@@H](COS(=O)(=O)[O-])[C@@H](OS(=O)(=O)[O-])[C@H](OS(=O)(=O)[O-])[C@@H]3O[C@@H]3O[C@@H](COS(=O)(=O)[O-])[C@@H](OS(=O)(=O)[O-])[C@H](OS(=O)(=O)[O-])[C@@H]3OS(=O)(=O)[O-])[C@H](OS(=O)(=O)[O-])[C@@H]2OS(=O)(=O)[O-])[C@@H](OS(=O)(=O)[O-])[C@@H](OS(=O)(=O)[O-])[C@H]1OS(=O)(=O)[O-].[Na+].[Na+].[Na+].[Na+].[Na+].[Na+].[Na+].[Na+].[Na+].[Na+].[Na+].[Na+].[Na+].[Na+]`, for which the pIC50 against Coagulation factor X and against Prothrombin was less than 3.32 in each case. The compound further showed a Relative inhibitory activity in the assay filed under Rattus norvegicus of 0.3.

Regarding `C[C@@H]1O[C@@H](OC[C@@H]2O[C@@H](O[C@H]3[C@H](OS(=O)(=O)[O-])[C@H](OS(=O)(=O)[O-])[C@@H](O[C@H]4O[C@@H](COS(=O)(=O)[O-])[C@H](OS(=O)(=O)[O-])[C@H](OS(=O)(=O)[O-])[C@@H]4OS(=O)(=O)[O-])O[C@H]3COS(=O)(=O)[O-])[C@@H](OS(=O)(=O)[O-])[C@@H](OS(=O)(=O)[O-])[C@@H]2OS(=O)(=O)[O-])[C@H](OS(=O)(=O)[O-])[C@@H](OS(=O)(=O)[O-])[C@H]1OS(=O)(=O)[O-].[Na+].[Na+].[Na+].[Na+].[Na+].[Na+].[Na+].[Na+].[Na+].[Na+].[Na+].[Na+].[Na+]`, the pIC50 at Coagulation factor X and at Prothrombin was less than 3.30 in each case. Moreover, in the assay listed under Rattus norvegicus, the Relative inhibitory activity came to 0.7.

Consider `O=S(=O)([O-])OC[C@@H]1O[C@@H](O[C@@H]2[C@H](OS(=O)(=O)[O-])[C@@H](O[C@H]3[C@H](OS(=O)(=O)[O-])[C@H](OS(=O)(=O)[O-])[C@@H](O[C@H]4O[C@@H](COS(=O)(=O)[O-])[C@H](OS(=O)(=O)[O-])[C@H](OS(=O)(=O)[O-])[C@@H]4OS(=O)(=O)[O-])O[C@H]3COS(=O)(=O)[O-])OC[C@H]2OS(=O)(=O)[O-])[C@@H](OS(=O)(=O)[O-])[C@@H](OS(=O)(=O)[O-])[C@H]1OS(=O)(=O)[O-].[Na+].[Na+].[Na+].[Na+].[Na+].[Na+].[Na+].[Na+].[Na+].[Na+].[Na+].[Na+].[Na+]`, for which the pIC50 on Coagulation factor X and at Prothrombin was less than 3.29 each time. Further, in the assay filed under Rattus norvegicus, the Relative inhibitory activity was 0.7.

Take `O=S(=O)([O-])OC[C@@H]1O[C@H](O[C@H]2O[C@@H](COS(=O)(=O)[O-])[C@@H](O[C@@H]3O[C@@H](COS(=O)(=O)[O-])[C@@H](OS(=O)(=O)[O-])[C@H](OS(=O)(=O)[O-])[C@@H]3O[C@H]3O[C@@H](COS(=O)(=O)[O-])[C@H](OS(=O)(=O)[O-])[C@H](OS(=O)(=O)[O-])[C@@H]3OS(=O)(=O)[O-])[C@H](OS(=O)(=O)[O-])[C@@H]2OS(=O)(=O)[O-])[C@@H](OS(=O)(=O)[O-])[C@@H](OS(=O)(=O)[O-])[C@H]1OS(=O)(=O)[O-].[Na+].[Na+].[Na+].[Na+].[Na+].[Na+].[Na+].[Na+].[Na+].[Na+].[Na+].[Na+].[Na+].[Na+]` (stereo in doubt; 2): the pIC50 at Coagulation factor X and at Prothrombin was less than 3.32 in each case. The compound also had a Relative inhibitory activity in the assay filed under Rattus norvegicus of 0.9.

Turning to `O=S(=O)([O-])OC[C@@H]1O[C@@H](O[C@H]2O[C@@H](COS(=O)(=O)[O-])[C@@H](O[C@@H]3O[C@@H](CO[C@H]4O[C@@H](COS(=O)(=O)[O-])[C@H](OS(=O)(=O)[O-])[C@H](OS(=O)(=O)[O-])[C@@H]4OS(=O)(=O)[O-])[C@@H](OS(=O)(=O)[O-])[C@H](OS(=O)(=O)[O-])[C@@H]3OS(=O)(=O)[O-])[C@H](OS(=O)(=O)[O-])[C@@H]2OS(=O)(=O)[O-])[C@@H](OS(=O)(=O)[O-])[C@@H](OS(=O)(=O)[O-])[C@H]1OS(=O)(=O)[O-].[Na+].[Na+].[Na+].[Na+].[Na+].[Na+].[Na+].[Na+].[Na+].[Na+].[Na+].[Na+].[Na+].[Na+]` (stereo in doubt; 9), the pIC50 on Coagulation factor X and at Prothrombin was less than 3.32 each time. The same compound registered a Relative inhibitory activity in the assay filed under Rattus norvegicus of 0.8.

In the case of `O=S(=O)([O-])OC[C@@H]1O[C@@H](O[C@H]2O[C@@H](COS(=O)(=O)[O-])[C@@H](O[C@@H]3O[C@@H](CO[C@H]4O[C@@H](COS(=O)(=O)[O-])[C@H](OS(=O)(=O)[O-])[C@H](OS(=O)(=O)[O-])[C@@H]4OS(=O)(=O)[O-])[C@@H](OS(=O)(=O)[O-])[C@H](OS(=O)(=O)[O-])[C@@H]3OS(=O)(=O)[O-])[C@H](OS(=O)(=O)[O-])[C@@H]2OS(=O)(=O)[O-])[C@@H](OS(=O)(=O)[O-])[C@@H](OS(=O)(=O)[O-])[C@H]1OS(=O)(=O)[O-].[Na+].[Na+].[Na+].[Na+].[Na+].[Na+].[Na+].[Na+].[Na+].[Na+].[Na+].[Na+].[Na+].[Na+]` (stereo in doubt; 12), the pIC50 at Coagulation factor X and against Prothrombin was less than 3.32 in each case. In the assay filed under Rattus norvegicus, this compound had a Relative inhibitory activity of 0.6.

As for `O=S(=O)([O-])OC[C@@H]1O[C@H](O[C@H]2O[C@@H](COS(=O)(=O)[O-])[C@@H](O[C@@H]3O[C@@H](COS(=O)(=O)[O-])[C@@H](OS(=O)(=O)[O-])[C@H](OS(=O)(=O)[O-])[C@@H]3O[C@H]3O[C@@H](COS(=O)(=O)[O-])[C@H](OS(=O)(=O)[O-])[C@H](OS(=O)(=O)[O-])[C@@H]3OS(=O)(=O)[O-])[C@H](OS(=O)(=O)[O-])[C@@H]2OS(=O)(=O)[O-])[C@@H](OS(=O)(=O)[O-])[C@@H](OS(=O)(=O)[O-])[C@H]1OS(=O)(=O)[O-].[Na+].[Na+].[Na+].[Na+].[Na+].[Na+].[Na+].[Na+].[Na+].[Na+].[Na+].[Na+].[Na+].[Na+]` (stereo in doubt; 13), the negative-log IC50 (pIC50) against Coagulation factor X and against Prothrombin was less than 3.32 each time. In the assay filed under Rattus norvegicus, the Relative inhibitory activity is reported as 0.5.

As to `O=S(=O)(O)OC[C@@H]1O[C@H](O[C@H]2O[C@@H](COS(=O)(=O)O)[C@@H](O[C@@H]3O[C@@H](COS(=O)(=O)O)[C@@H](OS(=O)(=O)O)[C@H](OS(=O)(=O)O)[C@@H]3O[C@H]3O[C@@H](COS(=O)(=O)O)[C@H](OS(=O)(=O)O)[C@H](OS(=O)(=O)O)[C@@H]3OS(=O)(=O)O)[C@H](OS(=O)(=O)O)[C@@H]2OS(=O)(=O)O)[C@@H](OS(=O)(=O)O)[C@@H](OS(=O)(=O)O)[C@H]1OS(=O)(=O)O` (stereo in doubt; 14), the pIC50 on Coagulation factor X and against Prothrombin was less than 3.32 each time.
